Measured values as given in patent US8071776B2, “Thienopyridines as allosteric potentiators of the M4 muscarinic receptor” (Eli Lilly and Company, priority 2004, dated 2011).
Several values for one entry are separate records, joined by “and”; a condition that tells them apart may be missing. Equal values may be shown once. Values belong to the compound of their own block, whether it stands above or below them.

What was measured:
hM1 receptors = molecular target: T1, hM1 receptors (Homo sapiens, UniProt P11229); assay: Calcium mobilization (FLIPR), ACh concentration-response curves, CHO hM1 cells; assay type: cell-based; settings: CHO cells stably expressing hM1
T1 construct: expressed in transfected cells
T1 sequence (P11229 1-460): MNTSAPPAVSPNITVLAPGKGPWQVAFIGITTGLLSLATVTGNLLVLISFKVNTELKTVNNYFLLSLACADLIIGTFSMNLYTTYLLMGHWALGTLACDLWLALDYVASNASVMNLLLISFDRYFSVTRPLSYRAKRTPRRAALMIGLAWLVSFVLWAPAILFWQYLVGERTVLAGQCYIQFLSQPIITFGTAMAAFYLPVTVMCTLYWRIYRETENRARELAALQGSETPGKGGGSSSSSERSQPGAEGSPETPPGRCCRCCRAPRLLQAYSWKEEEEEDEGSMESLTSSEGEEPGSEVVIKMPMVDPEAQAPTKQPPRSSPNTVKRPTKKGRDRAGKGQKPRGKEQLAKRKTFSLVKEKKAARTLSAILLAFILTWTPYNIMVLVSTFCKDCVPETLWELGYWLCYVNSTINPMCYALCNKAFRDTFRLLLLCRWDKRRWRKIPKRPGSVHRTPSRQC
Description: (§1) Automated multiple compound additions are timed by computer program. Cells are pre-incubated with increasing concentration of compounds.

hM2 receptors = hM2 receptors (Homo sapiens, UniProt P08172); settings: AV12 Gα15 hM2; too modest to be accurately estimated
Description: Using a calcium-sensitive fluorescent dye, agonist or potentiation activity of a given compound can be detected in a single assay using a Fluorescence Light Imaging Plate Reader (FLIPR) instrument. Cells are plated in Poly-D-Lysine coated black plates/clear bottom (Becton Dickinsons) at 40,000 cells per ml (100 μl/well) in growth media 24 hours prior to running the assay. The medium is removed before the addition of 50 μl fluorescence dye solution (HBSS containing 20 mM Hepes, 10 μM Fluo-3-AM, 0.05% pluronic acid F127; supplemented with 2.5 mM probenecid for CHO cell assays). The cells are incubated with the dye for 75 minutes before replacing with assay buffer (20 mM Hepes in Hanks balanced salt solution (Gibco); supplemented with 2.5 mM probenecid for CHO cells). The plate is transferred to the FLIPR machine (Molecular Devices) for fluorescence recordings. The cells are periodically excited by 488 nm light, and the emitted fluorescent light passed through a 510-570 nm filter and then detected by a cooled CCD camera. Automated multiple compound additions are timed by computer program. Cells are pre-incubated with increasing concentration of compounds. After 2 minutes, a range of acetylcholine concentrations is added to each concentration of compound. […]

hM4 receptors = molecular target: T2, hM4 receptors (Homo sapiens, UniProt P08173); assay: Calcium mobilization (FLIPR), ACh concentration-response curves, AV12 Gα15 hM4 cells; assay type: cell-based
T2 construct: expressed in transfected cells
T2 sequence (P08173 1-479): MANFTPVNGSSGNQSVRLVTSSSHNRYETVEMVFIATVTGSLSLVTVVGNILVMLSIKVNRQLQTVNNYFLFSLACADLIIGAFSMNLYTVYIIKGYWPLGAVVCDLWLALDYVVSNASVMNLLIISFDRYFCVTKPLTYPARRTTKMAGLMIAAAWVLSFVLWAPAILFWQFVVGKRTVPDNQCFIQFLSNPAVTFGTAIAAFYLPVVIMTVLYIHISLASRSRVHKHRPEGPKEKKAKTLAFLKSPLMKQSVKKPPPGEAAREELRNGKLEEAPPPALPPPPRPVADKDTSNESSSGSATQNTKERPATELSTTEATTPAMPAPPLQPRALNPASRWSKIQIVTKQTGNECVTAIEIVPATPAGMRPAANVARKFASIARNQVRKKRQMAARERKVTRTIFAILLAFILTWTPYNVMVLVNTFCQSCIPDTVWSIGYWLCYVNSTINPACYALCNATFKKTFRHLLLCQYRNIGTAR
Description: as §1

hM3 receptors = molecular target: T3, hM3 receptors (Homo sapiens, UniProt P20309); assay: Calcium mobilization (FLIPR), ACh concentration-response curves, CHO hM3 cells; assay type: cell-based; settings: CHO cells stably expressing hM3
T3 construct: expressed in transfected cells
Description: as §1

hM5 receptors = molecular target: T4, hM5 receptors (Homo sapiens, UniProt P08912); assay: Calcium mobilization (FLIPR), ACh concentration-response curves, CHO hM5 cells; assay type: cell-based; settings: CHO cells stably expressing hM5
T4 construct: expressed in transfected cells
T4 sequence (P08912 1-532): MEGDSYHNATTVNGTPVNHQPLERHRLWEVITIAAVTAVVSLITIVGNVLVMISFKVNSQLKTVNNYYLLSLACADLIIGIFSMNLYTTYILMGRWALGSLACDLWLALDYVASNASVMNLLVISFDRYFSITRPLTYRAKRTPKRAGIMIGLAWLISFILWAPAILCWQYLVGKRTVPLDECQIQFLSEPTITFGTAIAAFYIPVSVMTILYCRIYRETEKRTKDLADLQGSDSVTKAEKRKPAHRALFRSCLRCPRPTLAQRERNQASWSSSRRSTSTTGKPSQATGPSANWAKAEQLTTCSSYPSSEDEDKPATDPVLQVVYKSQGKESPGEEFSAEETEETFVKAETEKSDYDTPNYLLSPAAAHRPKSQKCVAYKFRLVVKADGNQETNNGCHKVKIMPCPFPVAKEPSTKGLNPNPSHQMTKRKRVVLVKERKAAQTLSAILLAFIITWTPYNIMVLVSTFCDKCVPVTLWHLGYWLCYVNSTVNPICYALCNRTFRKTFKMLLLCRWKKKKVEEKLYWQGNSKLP
Description: as §1

Male Fisher-344 rats = assay: Conditioned avoidance response; assay type: in vivo, rat
Source text: The apparatus is a Coulbourn Instruments shuttle operant chamber. Each session equals a total of 50 trials, presented on a 30 second inter-trial interval, and each trial begins with simultaneous illumination of a houselight and rising of a guillotine door. The rat is given 10 seconds to cross over to the other side (an avoidance response) before a 1 mA footshock is initiated. The shock remains on until the rat crosses over to the other side (an escape response) or 10 seconds has elapsed (an escape failure). […] The number of avoidance, escape and escape failure responses during each session is recorded and used for analysis.
Each test compound is administered orally 2 hours prior to testing. Oxo (0.03 mg/kg) is administered subcutaneously 30 minutes prior to testing. Data are analyzed via a one-way (within-group design) Analysis of Variance (ANOVA). In cases of a significant ANOVA (p<0.05), post-hoc comparisons may be made in which compound doses are compared back to the Oxo alone group (paired t-test).

T3 sequence (P20309 whole entry): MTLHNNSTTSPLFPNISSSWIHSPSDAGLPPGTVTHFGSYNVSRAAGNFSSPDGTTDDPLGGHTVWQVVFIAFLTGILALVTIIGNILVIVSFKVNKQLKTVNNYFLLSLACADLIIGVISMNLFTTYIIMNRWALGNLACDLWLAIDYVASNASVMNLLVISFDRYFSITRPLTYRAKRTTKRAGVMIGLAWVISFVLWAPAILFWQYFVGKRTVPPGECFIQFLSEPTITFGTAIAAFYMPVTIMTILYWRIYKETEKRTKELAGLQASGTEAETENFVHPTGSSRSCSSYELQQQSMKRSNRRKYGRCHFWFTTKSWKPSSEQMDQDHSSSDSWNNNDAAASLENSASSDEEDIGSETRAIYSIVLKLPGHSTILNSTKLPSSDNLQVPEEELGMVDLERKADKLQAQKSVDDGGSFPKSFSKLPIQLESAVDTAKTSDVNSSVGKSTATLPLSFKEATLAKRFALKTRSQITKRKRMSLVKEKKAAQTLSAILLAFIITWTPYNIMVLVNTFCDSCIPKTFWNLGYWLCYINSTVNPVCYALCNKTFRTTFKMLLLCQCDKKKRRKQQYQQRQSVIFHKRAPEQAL
Sequence of hM2 receptors (P08172 whole entry): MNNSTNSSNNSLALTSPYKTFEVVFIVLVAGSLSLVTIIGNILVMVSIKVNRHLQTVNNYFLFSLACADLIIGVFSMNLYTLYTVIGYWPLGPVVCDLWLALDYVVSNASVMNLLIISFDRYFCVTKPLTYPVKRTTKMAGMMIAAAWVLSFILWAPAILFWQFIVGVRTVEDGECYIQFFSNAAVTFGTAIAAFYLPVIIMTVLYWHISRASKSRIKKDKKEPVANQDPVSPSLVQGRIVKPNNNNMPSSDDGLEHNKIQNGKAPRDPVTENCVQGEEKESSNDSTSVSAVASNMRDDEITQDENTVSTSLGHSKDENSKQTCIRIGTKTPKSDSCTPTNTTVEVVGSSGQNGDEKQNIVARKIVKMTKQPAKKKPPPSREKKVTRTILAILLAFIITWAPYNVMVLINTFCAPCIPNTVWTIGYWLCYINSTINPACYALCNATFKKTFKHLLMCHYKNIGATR

- allosteric effect on ACh response (hM1 receptors): No significant allosteric effect
- allosteric effect on ACh response (hM2 receptors): modest allosteric effect
- Kd (hM4 receptors): 200 ± 42 nM
- potentiation of acetylcholine versus carbachol (hM4 receptors; FLIPR, both non-selective full muscarinic agonists, receptor subtype not given): potentiated in an equivalent fashion
- cooperatively factor for hM4 receptors (hM4 receptors; estimated, FLIPR, ACh curves, AV12 Gα15 hM4, duplicates, at least three experiments): 34.5±3.5
- allosteric effect on ACh response (hM3 receptors): No significant allosteric effect
- allosteric effect on ACh response (hM5 receptors): No significant allosteric effect
Compound: COc1nc2sc(C(=O)NC3CC3)c(N)c2c(C)c1Cl [Example 1, 3-Amino-5-chloro-6-methoxy-4-methyl-thieno[2,3-b]pyridine-2-carboxylic acid cyclopropylamide]

Compound: Cc1c(Cl)c(OCCN2CCOCC2)nc2sc(C(=O)NC3CC3)c(N)c12 [Example 6, 3-Amino-5-chloro-4-methyl-6-(2-morpholin-4-yl-ethoxy)-thieno[2,3-b]pyridine-2-carboxylic acid cyclopropylamide]
- Percent Avoidance Response (Mean ± S.E.M.), Oxo + Test Compound 10 mg/kg (Male Fisher-344 rats; test compound 10 mg/kg orally 2 hours prior, Oxo 0.03 mg/kg s.c. 30 minutes prior): 90 ± 3.4%

Compound: Cc1c(Cl)c(OCC(=O)N2CCN(C)CC2)nc2sc(C(=O)NC3CC3)c(N)c12 [Example 10]
- Percent Avoidance Response (Mean ± S.E.M.), Oxo + Test Compound 10 mg/kg (Male Fisher-344 rats; rat, in vivo): 85 ± 5.3%

Compound: Cc1c(Cl)c(OCCN2CCOCC2)nc2sc(C(=O)NC3CC3)c(N)c12.Cl [Example 28, 3-Amino-5-chloro-4-methyl-6-(2-morpholin-4-yl-ethoxy)-thieno[2,3-b]pyridine-2-carboxylic acid cyclopropylamide hydrochloride]
- Percent Avoidance Response (Mean ± S.E.M.), Oxo + Test Compound 30 mg/kg (Male Fisher-344 rats; test compound 30 mg/kg orally 2 hours prior, Oxo 0.03 mg/kg s.c. 30 minutes prior): 84 ± 6.3%

Compound: oxotremorine sesquifumarate
- Percent Avoidance Response (Mean ± S.E.M.), Oxo alone (Male Fisher-344 rats; Oxo 0.03 mg/kg subcutaneously 30 minutes prior to testing, first Oxo alone group): 93 ± 1.8% and 93 ± 1.2% and 89 ± 3.8% and 92 ± 1.5%
- Percent Avoidance Response (Mean ± S.E.M.), Oxo alone (retest) (Male Fisher-344 rats; retest of Oxo alone, 0.03 mg/kg subcutaneously 30 minutes prior to testing, 0.03 mg/kg): 91 ± 0.9% and 90 ± 2.5% and 89 ± 3.2% and 91 ± 2.0%
